Data reported in patent US6432426B1, “Non-staining topical iodine composition and method” (Symbollon Corporation, priority 1998, dated 2002).

Tests used:
Human Skin = assay: Coloration of human skin by a 30 second exposure (vial contact on forearm); hue by Pantone chips, intensity against Brown No. 3 dye; type: in vivo
Excerpt: 1. […] Elemental iodine was weighed on an analytical balance and dissolved in one liter of water that had been acidified with 2 drops of 0.1N hydrochloric acid. The concentration of molecular iodine in the water was confirmed by potentiometric analysis (Gottardi, W., 1983. Fresenius Z. Anal. Chem., Vol. 314, pages 582-585). Samples were also titrated with thiosulfate to determine that at least 95% of the theoretical yield of titratable iodine was in the form of molecular iodine as opposed to triiodide. The concentration of molecular iodine was varied from 25 ppm to 330 ppm.
One dram vials (Kimble catalog #60931) were used to deliver 4 mL of the room temperature iodine solutions samples. The vials were placed on the forearm of a subject and then the forearm was inverted to initiate contact of the sample with the iodine solution. The contact area was a circle with a diameter of 1.3 cm. The samples were held on the arm for 30 seconds at room temperature. Three different subjects were used for this experiment. Immediately after the 30 second contact time the arms of the subjects were examined for stains; 10 minutes after the end of the contact time all subjects arms were examined for stains again..
For the purposes of this application, two different parameters were used to characterize the color and intensity of the term stain. The hue of the color imparted to skin was characterized by using the Pantone Color Matching System (Pantone Color Specifier, Pantone Inc., Carlstadt, N.J.) which allows comparison with 1,012 defined colors on two types of paper. Stains from triiodide were matched to the Pantone color chip No. 152C. Short-lived coloration from molecular iodine were matched to the Pantone color chip 1375C.
The intensity of any coloration on skin was characterized by applying an aqueous solution of known concentrations of a food dye, Brown No. 3 (Crompton & Knowles, Mahwah, N.J. —Code DP935159), for 10 seconds using the method described above for application of iodine. Brown No. 3 was applied to the skin at concentrations that ranged from 500 ppm to 30 ppm and the intensity of the color from Brown No. 3 was compared to the intensity of coloration from iodine compositions. For instance, the intensity of color 10 minutes after a 30 second contact with a 600 ppm aqueous triiodide solution was equivalent to the color from a 10 second exposure to a 250 ppm Brown No. 3 solution. In contrast, the intensity of color 10 minutes after a 30 second contact with a 300 ppm aqueous molecular iodine solution was equivalent to the color from a ten second exposure to a 30 ppm Brown No. 3 solution which is barely discernible.

epidermis = assay: Staining of epidermis by triiodide solutions, 10 second contact on forearm; type: in vivo, human
Experimental: 3. […] Solutions of triiodide were prepared by dissolving elemental iodine into oxygen-free solutions of sodium iodide that were at a pH of 4.5. A molar excess of iodide was used. Based on thiosulfate titrations, potentiometric measurements of iodine and ion selective electrode measurements of iodide ion, essentially all of the elemental iodine was converted into triiodide. Solutions of triiodide were made that varied from 100 to 25,000 ppm. Four mL of each sample was transferred to a 1.0 dram vial (Kimble catalog #60931) at room temperature and placed on the forearm of a subject and then the forearm was inverted to initiate contact of the sample with the triiodide solution. The samples were held on the arm for 10 seconds.
The contact areas were checked for stains at 10 minutes and 3 hours after exposure.

Staphylococcus aureus = assay: Residual biocidal effect of skin associated iodine, colony counts from inoculated treated skin; type: in vivo; details: solution with 700 ppm of triiodide, but no molecular iodine
Experimental: 5. […] […] […] […] The samples were contacted with the arm for 30 seconds. After contact the treated arm was flushed with water for 15 seconds and dried.
[…] Two hours after contact each area was inoculated with […] of a 1:100 dilution of a 48 hour soy-trypticase culture of Staphylococcus aureus. Ninety minutes after inoculation the mouths of sterile 25 mL flasks filled with 2 mL of soy-trypticase with 2% Tween 80 were placed over the marked skin areas. The flasks were gently shaken for 1 minute and a colony count was performed on blood agar plates after incubation at 37° C. for 48 hours. The residual biocidal effect from skin associated molecular iodine was determined by subtracting the log of the colony counts from the areas of skin that were contacted with iodine from the controls (log colony count from untreated skin). The average difference in colony counts between treated and untreated skin was 2.4 logs.

Structure (SMILES): I[IH]I [triiodide, reference compound]
- Intensity of color on skin, equivalent Brown No. 3 solution (10 second exposure) (Human Skin; 10 minutes after a 30 second contact with a 600 ppm aqueous triiodide solution): 250 ppm
- Hue of the color imparted to skin, matched Pantone color chip (Human Skin; Pantone Color Matching System): 152C
- Staining at three hours (epidermis; 100 ppm triiodide): staining was present at three hours but it was not visibly noticeable
- Degree of color (epidermis; 700 ppm triiodide, 3 hours after contact): minimally discernable
- Coloration of the epidermis 3 hours after contact (epidermis; triiodide at concentrations from 25,000 to 700 ppm): A definite coloration of the epidermis was evident
- Reduction in the concentration of pathogens (Staphylococcus aureus): no measurable reduction
